What is called pA2 is the negative logarithm of the molar antagonist concentration that doubles the agonist concentration needed for the same response.

The species entered for the test is Rattus norvegicus. The experiment in a line: Calcium antagonistic activity assessed against calcium-induced constriction of potassium-depolarized rat aorta. The class given is functional. Conditions: for Kb: Rattus norvegicus, Aorta, read-out: pA2 (converted).

`O=C(CCCCCN1CCN(c2ccccc2)CC1)N[C@H]1c2ccccc2SC[C@@H]2CCCC[C@H]21`: the Kb is 30.2 nM.
Consider `O=C(CCN1CCN(c2ccccc2)CC1)N[C@H]1c2ccccc2SC[C@@H]2CCCC[C@H]21`, for which the Kb was 41.7 nM.
Same read-out and setting: to `Cc1ccc(N2CCN(CCCC(=O)N[C@H]3c4ccccc4SC[C@@H]4CCCC[C@H]43)CC2)cc1` belongs 70.8 nM.
On the same count and under the same terms, to `O=C(CCCN1CCN(C/C=C/c2ccccc2)CC1)N[C@H]1c2ccccc2SC[C@@H]2CCCC[C@H]21` belongs 75.9 nM; to `O=C(CN1CCN(c2ccccc2)CC1)N[C@H]1c2ccccc2SC[C@@H]2CCCC[C@H]21`, 105 nM.
In the case of `O=C(CCCN1CCN(c2ccc(F)cc2)CC1)N[C@H]1c2ccccc2OC[C@@H]2CCCC[C@H]21`, the Kb is 138 nM.
In the case of `O=C(CCCN1CCN(Cc2ccc([N+](=O)[O-])cc2)CC1)N[C@H]1c2ccccc2SC[C@@H]2CCCC[C@H]21`, the Kb was 19.1 nM.
Turning to `O=C(CCCN1CCN(c2ccc(F)cc2)CC1)N[C@@H]1c2ccccc2SC[C@@H]2CCCC[C@@H]21`, the Kb is 18.6 nM.
Regarding `O=C(CCCN1CCN(C(c2ccccc2)c2ccccc2)CC1)N[C@H]1c2ccccc2SC[C@@H]2CCCC[C@H]21`, the Kb was 40.7 nM.
Turning to `O=C(CCCN1CCN(Cc2ccccc2)CC1)N[C@H]1c2ccccc2SC[C@@H]2CCCC[C@H]21`, the Kb was 15.8 nM.
On to `O=C(CCCN1CCN(c2ccc(O)cc2)CC1)N[C@H]1c2ccccc2SC[C@@H]2CCCC[C@H]21`, for which the Kb is 69.2 nM.
Turning to `O=C(CCCN1CCN(c2ccc(Cl)cc2)CC1)N[C@H]1c2ccccc2SC[C@@H]2CCCC[C@H]21`, the Kb was 15.1 nM.
For the compound `O=C(CCCN1CCN(c2ccc(F)cc2)CC1)N[C@H]1c2ccccc2SC[C@@H]2CCCC[C@H]21`, the Kb was 6.92 nM.
On the same count and under the same terms, the figure for `O=C(CCCN1CCN(c2ccc(F)cc2)CC1)N[C@H]1c2cc(Cl)ccc2SC[C@@H]2CCCC[C@H]21` is 81.3 nM; for `O=C(CCCN1CCN(c2ccc(F)cc2)CC1)N[C@H]1c2ccccc2SC[C@@H]2CCCC[C@@H]21` it is 7.08 nM; for `O=C(CCCN1CCN(Cc2cccc(F)c2)CC1)N[C@H]1c2ccccc2SC[C@@H]2CCCC[C@H]21` it is 30.2 nM.
As for `O=C(CCCN1CCN(c2ccccc2)CC1)N[C@H]1c2ccccc2SC[C@@H]2CCCC[C@H]21.O=C(O)C(=O)O`, the pA2 came out at 7.68.
As for `COc1ccccc1N1CCN(CCCC(=O)N[C@H]2c3ccccc3SC[C@@H]3CCCC[C@H]32)CC1`, the Kb was 46.8 nM.
Consider `O=C(CCCN1CCN(c2cccc3ccccc23)CC1)N[C@H]1c2ccccc2SC[C@@H]2CCCC[C@H]21`, for which the Kb is 57.5 nM.
On to `O=C(CCCN1CCN(Cc2ccc(F)cc2)CC1)N[C@H]1c2ccccc2SC[C@@H]2CCCC[C@H]21`, for which the Kb was 57.5 nM.
Turning to `O=C(CCCN1CCN(C(=O)c2ccccc2)CC1)N[C@H]1c2ccccc2SC[C@@H]2CCCC[C@H]21`, the Kb is 97.7 nM.
Same read-out and setting: the figure for `O=C(CCCN1CCN(c2ccc(F)cc2)CC1)N[C@H]1c2cc(F)ccc2SC[C@@H]2CCCC[C@H]21` is 77.6 nM; for `O=C(CCCN1CCN(Cc2ccc(O)cc2)CC1)N[C@H]1c2ccccc2SC[C@@H]2CCCC[C@H]21` it is 70.8 nM.
On to `O=C(CCCCN1CCN(c2ccccc2)CC1)N[C@H]1c2ccccc2SC[C@@H]2CCCC[C@H]21`, for which the Kb was 28.2 nM.
Still for that read-out and setting: to `O=C(CCCN1CCN(c2ccc(C(F)(F)F)cc2)CC1)N[C@H]1c2ccccc2SC[C@@H]2CCCC[C@H]21` belongs 8.91 nM; to `CN(C(=O)CCN1CCN(c2ccccc2)CC1)[C@H]1c2ccccc2SC[C@@H]2CCCC[C@H]21`, 148 nM.
As to `COc1ccc(N2CCN(CCCC(=O)N[C@H]3c4ccccc4SC[C@@H]4CCCC[C@H]43)CC2)cc1`, the Kb is 25.1 nM.
With `O=C(CCCN1CCN(c2cccc(F)c2)CC1)N[C@H]1c2ccccc2SC[C@@H]2CCCC[C@H]21`, the Kb was 15.1 nM.
For the compound `O=C(CCCN1CCN(C2CCCCC2)CC1)N[C@H]1c2ccccc2SC[C@@H]2CCCC[C@H]21`, the Kb was 45.7 nM.
For `COc1ccc(CN2CCN(CCCC(=O)N[C@H]3c4ccccc4SC[C@@H]4CCCC[C@H]43)CC2)cc1`, the Kb is 56.2 nM.
`COc1ccc2c(c1)[C@H](NC(=O)CCCN1CCN(c3ccc(F)cc3)CC1)[C@@H]1CCCC[C@H]1CS2`: the Kb was 17 nM.
Regarding `c1ccc(N2CCN(CCCN[C@H]3c4ccccc4SC[C@@H]4CCCC[C@H]43)CC2)cc1`, the Kb is 158 nM.
As for `O=C(CCCN1CCN(Cc2ccc(Cl)cc2)CC1)N[C@H]1c2ccccc2SC[C@@H]2CCCC[C@H]21`, the Kb was 26.9 nM.
On to `O=C(CCCN1CCN(c2ccc(F)cc2)CC1)N[C@@H]1c2ccccc2SC[C@@H]2CCCC[C@H]21`, for which the Kb is 26.9 nM.
Still for that read-out and setting: to `Cc1ccc2c(c1)[C@H](NC(=O)CCCN1CCN(c3ccc(F)cc3)CC1)[C@@H]1CCCC[C@H]1CS2` belongs 141 nM; to `O=C(CCCN1CCN(CCc2ccccc2)CC1)N[C@H]1c2ccccc2SC[C@@H]2CCCC[C@H]21`, 72.4 nM.
For the compound `O=C(CCCN1CCN(c2ccc(F)cc2)CC1)N[C@H]1c2ccccc2[S+]([O-])C[C@@H]2CCCC[C@H]21` (stereo in doubt; 48), the pA2 is 6.48.
For `O=C(CCCN1CCN(c2ccc(F)cc2)CC1)N[C@H]1c2ccccc2[S+]([O-])C[C@@H]2CCCC[C@H]21` (stereo in doubt; 49), the Kb is 324 nM.

(Values after ChEMBL document CHEMBL1125238, “A new class of calcium antagonists. Synthesis and biological activity of 11-[(omega-aminoalkanoyl)amino]-6,6a,7,8,9,10,10a,11-octahydrodibenzo [b,e]thiepin derivatives” (J Med Chem, 1991).)
